{"source": "paper PMC5578959", "about": "“Selective LRRK2 kinase inhibition reduces phosphorylation of endogenous Rab10 and Rab12 in human peripheral mononuclear blood cells” (Scientific Reports, 2017)", "key": {"SGK,SGK2,SGK3": {"tested_on": "SGK,SGK2,SGK3", "assay": "KiNativ profiling in human PBMCs", "type": "binding", "details": "Lys1", "summary_of_the_method": "(§1)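 Target engagement in cells was measured using KiNativ chemistry following treatment of live human PBMCs with each compound at concentrations of 1 µM and 0.1 µM.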"}, "LRRK2-pSer935": {"biological_target": "T1, LRRK2-pSer935 (Homo sapiens, UniProt Q5S007)", "T1 construct": "human primary cells expressing endogenous levels of LRRK2; endogenous in cells; host or cells: human PBMCs from healthy donors", "T1 sequence (Q5S007 whole entry)": "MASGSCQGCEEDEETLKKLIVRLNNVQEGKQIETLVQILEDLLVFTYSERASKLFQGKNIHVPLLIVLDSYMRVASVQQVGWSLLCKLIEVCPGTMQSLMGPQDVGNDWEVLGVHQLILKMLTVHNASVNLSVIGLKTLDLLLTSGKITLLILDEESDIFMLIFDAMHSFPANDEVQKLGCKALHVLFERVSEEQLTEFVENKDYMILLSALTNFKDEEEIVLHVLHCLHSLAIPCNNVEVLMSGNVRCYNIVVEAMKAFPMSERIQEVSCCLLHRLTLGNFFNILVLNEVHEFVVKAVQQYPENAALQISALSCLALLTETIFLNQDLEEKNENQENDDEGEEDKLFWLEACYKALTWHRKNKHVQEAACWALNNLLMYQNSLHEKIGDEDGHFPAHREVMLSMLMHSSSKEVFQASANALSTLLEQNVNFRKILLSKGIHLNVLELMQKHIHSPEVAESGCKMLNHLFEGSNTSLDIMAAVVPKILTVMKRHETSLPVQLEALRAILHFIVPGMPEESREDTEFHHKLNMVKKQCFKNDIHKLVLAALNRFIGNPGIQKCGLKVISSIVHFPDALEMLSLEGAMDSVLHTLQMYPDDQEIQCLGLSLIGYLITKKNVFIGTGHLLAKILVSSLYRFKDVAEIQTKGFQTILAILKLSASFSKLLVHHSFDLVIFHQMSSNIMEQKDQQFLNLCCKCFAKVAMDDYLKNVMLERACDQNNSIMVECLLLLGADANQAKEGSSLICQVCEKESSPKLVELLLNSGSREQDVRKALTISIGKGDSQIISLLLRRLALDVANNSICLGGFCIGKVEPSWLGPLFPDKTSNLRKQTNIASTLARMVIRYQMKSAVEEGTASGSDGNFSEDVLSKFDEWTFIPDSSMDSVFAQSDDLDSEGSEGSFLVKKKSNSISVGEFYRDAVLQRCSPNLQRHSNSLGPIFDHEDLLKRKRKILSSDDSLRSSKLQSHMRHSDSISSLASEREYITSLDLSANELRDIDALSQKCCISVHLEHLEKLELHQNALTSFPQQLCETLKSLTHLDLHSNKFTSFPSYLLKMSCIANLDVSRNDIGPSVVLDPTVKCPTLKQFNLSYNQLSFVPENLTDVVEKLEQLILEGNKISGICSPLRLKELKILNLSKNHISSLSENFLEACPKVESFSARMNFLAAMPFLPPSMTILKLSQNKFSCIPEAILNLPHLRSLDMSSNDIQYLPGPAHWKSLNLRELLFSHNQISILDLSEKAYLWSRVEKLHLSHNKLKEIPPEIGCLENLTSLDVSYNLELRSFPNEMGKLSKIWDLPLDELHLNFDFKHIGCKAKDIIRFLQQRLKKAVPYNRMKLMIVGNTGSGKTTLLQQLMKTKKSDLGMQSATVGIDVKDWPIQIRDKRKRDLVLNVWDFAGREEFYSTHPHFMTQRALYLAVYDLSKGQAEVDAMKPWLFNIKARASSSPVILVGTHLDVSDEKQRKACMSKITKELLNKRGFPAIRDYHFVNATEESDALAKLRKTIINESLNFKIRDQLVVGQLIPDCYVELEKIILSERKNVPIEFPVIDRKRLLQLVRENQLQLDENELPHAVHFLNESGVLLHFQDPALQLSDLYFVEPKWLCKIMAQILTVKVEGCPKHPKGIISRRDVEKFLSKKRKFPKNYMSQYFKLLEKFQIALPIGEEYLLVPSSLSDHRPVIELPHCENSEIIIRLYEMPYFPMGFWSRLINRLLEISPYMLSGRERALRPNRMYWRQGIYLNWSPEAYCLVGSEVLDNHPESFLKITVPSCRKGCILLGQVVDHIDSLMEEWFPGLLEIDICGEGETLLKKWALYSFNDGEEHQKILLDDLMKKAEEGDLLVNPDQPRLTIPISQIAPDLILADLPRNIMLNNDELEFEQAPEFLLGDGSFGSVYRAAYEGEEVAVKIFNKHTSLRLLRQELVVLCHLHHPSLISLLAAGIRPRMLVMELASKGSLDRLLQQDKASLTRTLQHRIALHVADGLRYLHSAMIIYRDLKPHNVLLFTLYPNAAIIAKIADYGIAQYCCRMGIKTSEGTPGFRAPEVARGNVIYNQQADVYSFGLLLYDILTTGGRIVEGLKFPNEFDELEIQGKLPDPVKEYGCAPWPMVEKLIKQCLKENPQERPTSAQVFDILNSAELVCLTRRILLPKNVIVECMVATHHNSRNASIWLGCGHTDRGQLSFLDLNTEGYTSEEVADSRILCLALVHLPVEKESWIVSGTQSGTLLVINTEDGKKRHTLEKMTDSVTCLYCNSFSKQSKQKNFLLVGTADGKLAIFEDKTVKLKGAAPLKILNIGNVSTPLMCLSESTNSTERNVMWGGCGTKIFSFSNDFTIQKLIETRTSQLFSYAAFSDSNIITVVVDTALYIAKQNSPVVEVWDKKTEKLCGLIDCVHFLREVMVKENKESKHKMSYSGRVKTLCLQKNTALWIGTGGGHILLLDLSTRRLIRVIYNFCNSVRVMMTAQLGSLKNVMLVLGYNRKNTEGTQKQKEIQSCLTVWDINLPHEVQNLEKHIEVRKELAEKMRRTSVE", "assay": "Western Blot, cultured immune stimulated human PBMCs", "type": "cell-based", "details": "100 nM, 1hr and 24hrs, n = 10 donors", "experimental": "PBMC were isolated from fresh blood collected within a maximal time of 4 hours after blood collection. Leucosep tubes (Greiner 227290) was added 15 ml Ficoll (GE Healthcare 17-440-03) and spun 30 s at 1000 × g. Blood was diluted 1:1 using D-PBS 1X (Gibco 14190), transfered to the Leucosep and centrifuged at 800 g for 15 min without brake. The upper layer corresponding to the diluted plasma was removed and the PBMC layer collected using a pipette or by pouring into a clean BD Falcon 50 ml tube. Cells were re-suspended and washed four times with 10 ml of D-PBS 1X (Gibco 14190) followed by centrifugation at 250 g for 10 min with brake at room temperature. The supernatant was discarded and the cells re-suspended in Complete medium equilibrated to 37 °C. The number of dead and living cells were counted on a Nucleocounter and used to calculate percent viability. […]\nHEK293 cells were plated at a density of 1 × 10^6 cells/well in 6-well plates pre-coated for 1 hr at 37 °C with poly-L-lysin. […] The proteins were visually detected by infrared imaging using Odyssey CLx (LI-COR, Nebraska, US). Membranes were scanned and band intensities were quantified using the Image Studio version 3.1.4 (LI-COR, Nebraska)."}, "[1]": {"tested_on": "kinases other than LRRK2 (off-target kinases)", "assay": "KiNativ broad kinase profiling in human PBMCs", "type": "binding", "details": "100 nM", "experimental": "Compounds were shipped to ActivX Technologies (San Diego, US) where LRRK2 target engagement and broad kinase profiling was performed using KiNativ™ procedures. Live cell treatment of human peripheral blood mononuclear cells (PBMCs) at two compound concentrations (1 µM and 0.1 µM) were used to evaluate and compare in vitro target engagement and kinase selectivity, respectively (see Supplementary File 1)."}, "MARK4": {"tested_on": "T2, MARK4", "T2 construct": "purchased ActivX Technologies (KiNativ)", "assay": "KiNativ profiling in human PBMCs", "type": "binding", "details": "Lys2"}, "AMPKa1": {"tested_on": "T3, AMPKa1", "T3 construct": "purchased ActivX Technologies (KiNativ)", "assay": "KiNativ profiling in human PBMCs", "type": "binding", "details": "ATP Loop", "summary_of_the_method": "as §1"}, "MAPKAPK3": {"tested_on": "T4, MAPKAPK3", "T4 construct": "purchased ActivX Technologies (KiNativ)", "assay": "KiNativ profiling in human PBMCs", "type": "binding", "details": "ATP Loop", "summary_of_the_method": "as §1"}, "SRPK1": {"tested_on": "T5, SRPK1", "T5 construct": "purchased ActivX Technologies (KiNativ)", "assay": "KiNativ profiling in human PBMCs", "type": "binding", "details": "Lys2"}, "GPRK5": {"tested_on": "T6, GPRK5", "T6 construct": "purchased ActivX Technologies (KiNativ)", "assay": "KiNativ profiling in human PBMCs", "type": "binding", "details": "Lys2"}, "PHKg2": {"tested_on": "T7, PHKg2", "T7 construct": "purchased ActivX Technologies (KiNativ)", "assay": "KiNativ profiling in human PBMCs", "type": "binding", "details": "Lys1"}, "NEK3": {"tested_on": "T8, NEK3", "T8 construct": "purchased ActivX Technologies (KiNativ)", "assay": "KiNativ profiling in human PBMCs", "type": "binding", "details": "Activation Loop"}, "ROCK1, ROCK2": {"tested_on": "ROCK1, ROCK2", "assay": "KiNativ profiling in human PBMCs", "type": "binding", "details": "Lys2"}, "FAK": {"tested_on": "T9, FAK", "T9 construct": "purchased ActivX Technologies (KiNativ)", "assay": "KiNativ profiling in human PBMCs", "type": "binding", "details": "Activation Loop"}, "ZC2/TNIK": {"tested_on": "T10, ZC2/TNIK", "T10 construct": "purchased ActivX Technologies (KiNativ)", "assay": "KiNativ profiling in human PBMCs", "type": "binding", "details": "Lys1"}, "MPSK1": {"tested_on": "T11, MPSK1", "T11 construct": "purchased ActivX Technologies (KiNativ)", "assay": "KiNativ profiling in human PBMCs", "type": "binding", "details": "Lys1"}, "ITPK1": {"tested_on": "T12, ITPK1", "T12 construct": "purchased ActivX Technologies (KiNativ)", "assay": "KiNativ profiling in human PBMCs", "type": "binding", "details": "ATP"}}, "data": [{"smiles": "Cc1cccc(-c2cc(Nc3ccn(C)n3)nc3[nH]cc(C#N)c23)c1", "note": "[Lu AF58786]", "values": [{"measurement": "Inhibition", "setting": "SGK,SGK2,SGK3; 0.1µM", "value": 7.0, "unit": "%"}, {"measurement": "Inhibition", "setting": "SGK,SGK2,SGK3; 1µM", "value": 0.243, "unit": "%"}, {"measurement": "LRRK2 kinase inhibition (LRRK2-pSer935/total LRRK2)", "setting": "LRRK2-pSer935", "value": "confirmed"}, {"measurement": "inhibition of other kinases", "setting": "[1]; human PBMCs", "value": "no inhibition"}]}, {"smiles": "Cn1cc(-c2c[nH]c3ncnc(N4CCOCC4)c23)cc1C#N", "note": "[PFE-360]", "values": [{"measurement": "% Inhibition", "setting": "MARK4; 0.1µM", "value": 14.8, "unit": "%"}, {"measurement": "% Inhibition", "setting": "MARK4; 1µM", "value": -6.1, "unit": "%"}, {"measurement": "% Inhibition", "setting": "AMPKa1; 0.1µM", "value": -1, "unit": "%"}, {"measurement": "% Inhibition", "setting": "AMPKa1; 1µM", "value": 4, "unit": "%"}, {"measurement": "% Inhibition", "setting": "MAPKAPK3; 0.1µM", "value": -5.1, "unit": "%"}, {"measurement": "% Inhibition", "setting": "MAPKAPK3; 1µM", "value": -8.3, "unit": "%"}, {"measurement": "LRRK2 kinase inhibition (LRRK2-pSer935/total LRRK2)", "setting": "LRRK2-pSer935", "value": "confirmed"}, {"measurement": "% Inhibition", "setting": "SRPK1; 0.1µM", "value": 12.7, "unit": "%"}, {"measurement": "% Inhibition", "setting": "SRPK1; 1µM", "value": -13.2, "unit": "%"}, {"measurement": "% Inhibition", "setting": "GPRK5; 0.1µM", "value": 19.3, "unit": "%"}, {"measurement": "% Inhibition", "setting": "GPRK5; 1µM", "value": 1.5, "unit": "%"}, {"measurement": "% Inhibition", "setting": "PHKg2; 0.1µM", "value": -21.5, "unit": "%"}, {"measurement": "% Inhibition", "setting": "PHKg2; 1µM", "value": -15.8, "unit": "%"}, {"measurement": "% Inhibition", "setting": "NEK3; 0.1µM", "value": -10.8, "unit": "%"}, {"measurement": "% Inhibition", "setting": "NEK3; 1µM", "value": 1.2, "unit": "%"}, {"measurement": "% Inhibition", "setting": "ROCK1, ROCK2; 0.1µM", "value": -31.8, "unit": "%"}, {"measurement": "% Inhibition", "setting": "ROCK1, ROCK2; 1µM", "value": -10.7, "unit": "%"}, {"measurement": "% Inhibition", "setting": "FAK; 0.1µM", "value": 2.6, "unit": "%"}, {"measurement": "% Inhibition", "setting": "FAK; 1µM", "value": 26.4, "unit": "%"}, {"measurement": "% Inhibition", "setting": "ZC2/TNIK; 0.1µM", "value": -31.6, "unit": "%"}, {"measurement": "% Inhibition", "setting": "ZC2/TNIK; 1µM", "value": 12.3, "unit": "%"}, {"measurement": "inhibition of off-target kinases", "setting": "[1]; acutely isolated human PBMCs", "value": "≤ 60", "unit": "%"}, {"measurement": "% Inhibition", "setting": "MPSK1; 0.1µM", "value": 5.5, "unit": "%"}, {"measurement": "% Inhibition", "setting": "MPSK1; 1µM", "value": -27.6, "unit": "%"}, {"measurement": "% Inhibition", "setting": "ITPK1; 0.1µM", "value": -34, "unit": "%"}, {"measurement": "% Inhibition", "setting": "ITPK1; 1µM", "value": -34.7, "unit": "%"}]}]}
